Results published in patent US20260021186A1, “Fatty Acid-D-Amino Acid Peptides Conjugates as Anaplerotic Compounds for Use in Treating Propionic Acidemia, Methylmalonic Acidurias, and Energy Metabolic Disorders” (University of Pittsburgh - Of the Commonwealth System of …, priority 2022, published 2026).

Experiments:
[1] = tested on: Fb859 propionic acidemia patient fibroblasts; test: Lysine succinylation of cellular proteins by immunofluorescence confocal microscopy; type: cell-based, human; settings: media without glucose; for lysine succinylation (green) signal: FIGS. 8A-8F, 30 μM and 90 μM, pyruvate, glutamine, stripped FBS; for lysine succinylation (green staining) compared to untreated cells: FIG. 7, 90 μM, 72 hours, glutamine or pyruvate, lipid stripped FBS
Description: FIG. 7 are immunocytochemistry photomicrographs showing the effect of incubation of Fb859 propionic acidemia patient fibroblasts on for lysine succinylation with 90 μM of PMA010, 90 μM of PMA011, 90 μM of succinic acid, 90 μM of methylmalonic acid, or 90 μM adipic acid for 72 hours. Immunocytochemistry of the fibroblast cells were stained for anti-succinyllysine antibody, anti-MTCO1 antibody and DAPI for nuclei. Instrument: Zeiss LSM 710 confocal Microscopy. Magnification: 40×. The cells were grown in glass coverslips at a seeding density of 3-5×10^4 cells. The media for untreated and treatment groups had no glucose, glutamine or pyruvate, and lipid stripped FBS was included instead of regular FBS. Scale bar=20 μm.
FIGS. 8A-8F are a comparison of lysine succinylation of cellular proteins visualized by immunofluorescence confocal microscopy in a Propionic Acidemia (Fb859) patient untreated (FIG. 8A) and treated with 30 μM and 90 μM of D-Serine (FIG. 8B), 30 µM and 90 μM of PMA007 (FIG. 8C), or 30 μM and 90 μM of PMA010 (FIG. 8D). Scale bar=20 μm. FIG. 8E is a bar graph showing the quantification of the percent change in lysine succinylation (green) signal, from the immunofluorescence confocal micrographs of FIGS. 8B and 8C, in response to the treatment of D-serine and PMA007. FIG. 8F is a bar graph showing the quantification of the percent change in lysine succinylation (green) signal, from the immunofluorescence confocal micrographs of a D-Serine repeat experiment and FIG. 8D, in response to the treatment of D-serine and PMA010. Asterisks indicate statistical significance calculated at the raw data level (n=3); **P<0.01, ***P<0.001, ****P<0.0001 statistically compared to untreated. Statistical analysis used T-test.
Immunohistochemistry: Patient cells were grown in glass coverslips at a seeding density of 3-5×10^4 cells. The media for untreated and treatment groups had no glucose, glutamine or pyruvate, and lipid stripped FBS was included instead of regular FBS. NIH Image J software was used to quantify the fluorescence intensity from 50-60 cells per group. Immunocytochemistry of propionic acidemia patient (Fb859) fibroblast cells lines stained for anti-succinyllysine (Green), anti-MTCO1 (Red), or anti-TOMM20 antibodies, and DAPI (Blue) for nuclei. Instrument: Zeiss LSM 710 confocal Microscopy. Statistical analysis used Tukey multiple range test. ****P<0.0001, [PMA010] (90 μM) treatment group statistically compared to control cells grown in the presence of regular complete DMEM media, untreated and [PMA010] (30 μM) cells grown in the absence of glucose/pyruvate/L-glutamine.

rat liver mitochondrial = settings: in vitro; cited from earlier work
HEK293 PCCA−/− cells = test: Lysine succinylation of cellular proteins by immunofluorescence confocal microscopy; type: cell-based, human; settings: FIGS. 9C, 9D; 30 μM and 90 μM; media without glucose, pyruvate, and glutamine
Description: FIGS. 9A-9F are a comparison of lysine succinylation of cellular proteins visualized by immunofluorescence confocal microscopy in human HEK293 control and HEK293 PCCA^−/− cells untreated (FIGS. 9A and 9B) and treated with 30 μM and 90 μM of PMA007 (FIG. 9C) or 30 μM and 90 μM of PMA010 (FIG. 9D). The cells in FIGS. 9B, 9C, and 9D were grown in media without glucose, pyruvate, and glutamine. Scale bar=20 μm. FIG. 9E is a bar graph showing the quantification of the percent change in lysine succinylation (green) signal, from the immunofluorescence confocal micrographs of FIGS. 9B and 9C, in response to the treatment of PMA007. FIG. 9F is a bar graph showing the quantification of the percent change in lysine succinylation (green) signal, from the immunofluorescence confocal micrographs of FIGS. 9B and 9D, in response to the treatment of PMA010. Asterisks indicate statistical significance calculated at the raw data level (n=3); **P<0.01. ****P<0.0001 statistically compared to untreated. Statistical analysis used T-test.
FIGS. 9A-9F are a comparison of lysine succinylation of cellular proteins visualized by immunofluorescence confocal microscopy in human HEK293 control and in untreated and treated HEK293 PCCA^−/− knock out cells. […] The PMA007 treatment data in the bar graph of FIG. 9E are the quantitation of the images of FIG. 9C compared to untreated control in FIG. 9B. […]

PA patient cells, Fb859 = test: Measurement of mitochondrial respiration (Seahorse XF MitoStress test, OCR); type: cell-based, human; settings: FIGS. 12A-12D; 30 μM and 90 μM for 72 h
Description: Measurement of Mitochondrial Respiration Seahorse: Fb859 cells were grown in regular DMEM media until 85-90% confluency. The cells were harvested and seeded at a concentration of 25,000 cells/80 μl (n=8 replicates) in poly-D lysine coated XFe seahorse 96well plate in regular DMEM media and incubated overnight at 37° C. in a 5% CO2 incubator. Following day, the culture media was replaced in designated wells with the following for 72 h:180 μl of Specialty Media A (seahorse XFDMEM base media+10% fat stripped FBS+Glucose+sodium pyruvate+L-glutamine+0.5 mM carnitine). 180 μl of Specialty Media B (scahorse XFDMEM base media+10% stripped FBS+0.5 mM carnitine and no added glucose, sodium pyruvate or glutamine). 180 μl of Specialty media B containing experimental compounds. After 72 h incubation the Specialty media A & B was replaced in respective designated wells with 180 μL Seahorse XF DMEM base media containing glucose, sodium pyruvate. […] OCR was determined (Seahorse XF MitoStress test). Finally, cells were lysed, and protein content was determined. […]
Measurement of Mitochondrial Respiration: Control Fb826 and Patient Fb859 cells were grown in regular DMEM media without adding extra glutamine until 85-90% confluency. […] Oxygen consumption rate (OCR) was determined (Seahorse XF MitoStress test). Finally, cells were lysed, and protein content was determined. […]

[2] = tested on: glutaric acidemia II (GA II) fibroblast cell line Fb930; test: Mitochondrial ROS production using MitoSOX Red; type: cell-based, human; settings: FIG. 15D; 600 and 1200 μM, 72 h; preliminary test
From the text: (§1) FIGS. 15A-15D are graphs showing the measurement of mitochondrial reactive oxygen species (ROS) production using MitoSOX Red as Superoxide indicator probe. FIG. 15A is a graph showing control fibroblast cell line FB826 treated with PMA010, PMA011, PMA019, and PMA020. FIG. 15B is a graph showing propionic acidemia (PA) patients' fibroblast cell linc Fb859 treated with PMA010, PMA011, PMA019, and PMA020. FIG. 15C is a graph showing propionic acidemia (PA) patients' fibroblast cells line Fb900 treated with PMA010, PMA011, PMA019, and PMA020. FIG. 15D is a graph comparing ROS production levels in response to treatment with PMA011 in Control fibroblast cell line (FB826), PA fibroblast cell line (Fb900), and glutaric acidemia II (GA II) patient fibroblast cell lines (Fb930, Fb961). Data are the average of readings from 3 replicate wells.
(§2) Measurement of mitochondrial ROS production using MitoSOX Red as superoxide indicator probe: control (Fb826), PA patient (Fb859, Fb900) and GA II patient (Fb930, Fb961) fibroblasts were grown in regular DMEM media containing glucose/pyruvate/L-glutamine until 85-90% confluency. The cells were harvested and seeded at a concentration of 25,000 cells/80 μl (n=3) in cell culture treated black wall 96 well microplate with clear bottom in regular DMEM media containing glucose/pyruvate/L-glutamine and incubated overnight at 37° C. in a 5% CO2 incubator. Following day, the culture media was replaced in designated wells with the following for 72 h: 150 μl regular DMEM (Glucose+10% FBS+sodium pyruvate+L-glutamine+0.5 mM carnitine). 150 μl of Regular DMEM containing experimental compounds (180 and 640 μM) PMA010 or PMA011 or PMA 019 and (640 μM) PMA020 in control and propionic acidemia patient fibroblasts. 150 μl of regular DMEM containing experimental compounds (600 and 1200 μM) PMA011 in Fb930 and (1200 μM) PMA011 in Fb961 GA II patient fibroblast. After 72 h incubation the wells were washed twice with 150 μL of Seahorse XFDMEM base media and in respective designated wells the following Assay buffer (150 μL of seahorse XFDMEM base media containing glucose, sodium pyruvate and Glutamine) was used along with 5 μM MitoSOX reagent and incubated at 37° C. non-CO2 incubator for 15 minutes protected from light. After 15 minutes incubation the cells were washed twice with 150 μL of seahorse XFDMEM base media and replaced with measurement buffer, which is same as the wash buffer. The fluorescence was monitored with excitation at 520 nm and emission at 580 nm. Finally, cells were lysed, and protein content was determined. Data is normalized to protein concentration and fluorescence is reported as MitoSOX Red (AFU)/mg protein.

[3] = tested on: propionic acidemia (PA) fibroblast cell line Fb900; test: Mitochondrial ROS production using MitoSOX Red; type: cell-based, human; settings: FIG. 15C; 180 and 640 μM, 72 h
From the text: as §1, §2

[4] = tested on: glutaric acidemia II (GA II) fibroblast cell line Fb961; test: Mitochondrial ROS production using MitoSOX Red; type: cell-based, human; settings: FIG. 15D; 1200 μM, 72 h; preliminary test
From the text: as §1, §2

PA patients = settings: clinical study initiated in 2008; cited from earlier work

N[C@H](CO)C(=O)O [D-serine, reference compound]
lysine succinylation (green) signal [1]: Restoration of lysine succinylation (green) signal

O=C(O)C[C@H](O)C(=O)O [L-malate]
reduction of propionate level (rat liver mitochondrial): 46%
reduction of propionyl-CoA levels in the mitochondrial matrix (rat liver mitochondrial): 62%

N[C@H](COC(=O)CCCCC(=O)O)C(=O)N[C@@H](Cc1c[nH]cn1)C(=O)O [PMA007, 6-((R)-2-amino-3-(((S)-1-carboxy-2-(1H-imidazol-4-yl)ethyl)amino)-3-oxopropoxy)-6-oxohexanoic acid]
lysine succinylation (green) signal (HEK293 PCCA−/− cells): green color was restored
lysine succinylation (green) signal [1]: Restoration of lysine succinylation (green) signal
oxygen consumption parameters compared to individual components D-Serine and D-Histidine (PA patient cells, Fb859): improved

CC(C(=O)O)C(=O)N[C@H](C)C(=O)N[C@H](Cc1c[nH]cn1)C(=O)O (stereo partly drawn) [PMA011, 3-(((R)-1-(((R)-1-carboxy-2-(1H-imidazol-4-yl)ethyl)amino)-1-oxopropan-2-yl)amino)-2-methyl-3-oxopropanoic acid]
lysine succinylation (green staining) compared to untreated cells [1]: obvious increase in the green staining
ROS detected (MitoSOX Red) compared to no treatment [2]: significant decrease in ROS
ROS detected (MitoSOX Red) [3]: similarly effective
ROS detected (MitoSOX Red) compared to no treatment [4]: significant decrease in ROS

O=C(O)CCCCC(=O)O [adipic acid, reference compound]
lysine succinylation (green staining) compared to untreated cells [1]: obvious increase in the green staining

O=C(O)CC(O)(CC(=O)O)C(=O)O [citrate]
clinical benefit of supplementation (PA patients): can be beneficial in some cases

CC(C(=O)O)C(=O)O [methylmalonic acid]
lysine succinylation (green staining) compared to untreated cells [1]: obvious increase in the green staining

O=C(O)CCC(=O)O [succinic acid, reference compound]
lysine succinylation (green staining) compared to untreated cells [1]: obvious increase in the green staining
